Source: patent US7649012B2, “Compounds, pharmaceutical compositions containing same, and methods of use for same” (FASgen, Inc., priority 2002, dated 2010)
In brackets after ≈: the same amount, converted by molar mass. Like-named read-outs stand apart in the source and are kept apart here.

Columns and labels:
purified human FAS = biological target: T1, purified human FAS (Homo sapiens, UniProt P49327); assay: Measurement of FAS enzymatic activity (NADPH oxidation), IC50; format: biochemical
T1 construct: Human FAS was purified from cultured ZR-75-1 human breast cancer cells; endogenous in cells; host or cells: ZR-75-1 human breast cancer cells (ATCC); endogenous enzyme purified by PEG precipitation and Mono Q anion exchange
Method: Human FAS was purified from cultured ZR-75-1 human breast cancer cells obtained from the American Type Culture Collection. The procedure, adapted from Linn et al., 1981, and Kuhajda et al., 1994, utilizes hypotonic lysis, successive polyethyleneglycol (PEG) precipitations, and anion exchange chromatography. […] The lysate is centrifuged in JA-20 rotor (Beckman) at 20,000 rpm for 30 minutes at 4° C. and the supernatant is brought to 42 ml with lysis buffer. A solution of 50% PEG 8000 in lysis buffer is added slowly to the supernatant to a final concentration of 7.5%. After rocking for 60 minutes at 4° C., the solution is centrifuged in JA-20 rotor (Beckman) at 15,000 rpm for 30 minutes at 4° C. […] After the rocking and centrifugation is repeated as above, the pellet is resuspended overnight at 4° C. in 10 ml of Buffer A (20 mM K2HPO4, pH 7.4). After 0.45 μM filtration, the protein solution is applied to a Mono Q 5/5 anion exchange column (Pharmacia). The column is washed for 15 minutes with buffer A at 1 ml/minute, and bound material is eluted with a linear 60-ml gradient over 60 minutes to 1 M KCl. […] FAS protein concentration is determined using the Coomassie Plus Protein Assay Reagent (Pierce) according to manufacturer's specifications using BSA as a standard. This procedure results in substantially pure preparations of FAS (>95%) as judged by Coomassie-stained gels. FAS activity is measured by monitoring the malonyl-CoA dependent oxidation of NADPH spectrophotometrically at OD340 in 96-well plates (Dils et al and […] et al, 1975). […] For each experiment, cerulenin (Sigma) is run as a positive control along with DMSO controls, inhibitors, and blanks (no FAS enzyme) all in duplicate. The assay is performed on a Molecular Devices SpectraMax Plus Spectrophotometer. The plate containing FAS, buffers, inhibitors, and controls are placed in the spectrophotometer heated to 37° C. Using the kinetic protocol, the wells are blanked on duplicate wells containing 100 μl of 100 mM K2HPO4, pH 6.5 and the plate is read at OD340 at 10 sec intervals for 5 minutes to measure any malonyl-CoA independent oxidation of NADPH. The plate is removed from the spectrophotometer and malonyl-CoA (67.4 μM, final concentration per well) and […] (61.8 μM, final concentration per well) are added to each well except to the blanks. The plate is read again as above with the kinetic protocol to measure the malonyl-CoA dependent NADPH oxidation. The difference between the Δ OD340 for the malonyl-CoA dependent and non-malonyl-CoA dependent NADPH oxidation is the specific FAS activity. Because of the purity of the FAS preparation, non-malonyl-CoA dependent NADPH oxidation is negligible. […] Graphs of Δ OD340 versus time are plotted by the SOFTmax PRO software (Molecular Devices) for each compound concentration.

[1] = test system: MCF-7 human breast cancer cells; assay: Crystal violet cell growth assay; format: cell-based; settings: MCF7, MCF-7, 72 hours, read-out: Cr. Violet(IC50)
Method: The crystal violet assay measure cell growth but not cytotoxicity. This assay employs crystal violet staining of fixed cells in 96-well plates with subsequent solubilization and measurement of OD490 on a spectrophotometer. The OD490 corresponds to cell growth per unit time measured. Cells are treated with the compounds of interest or vehicle controls and IC50 for each compound is computed.
To measure the cytotoxicity of specific compounds against cancer cells, 5×10^4 MCF-7 human breast cancer cells, obtained from the American Type Culture Collection are plated per well in 24 well plates in DMEM medium with 10% fetal bovine serum, penicillin, and streptomycin. Following overnight culture at 37° C. and 5% CO2, the compounds to be tested, dissolved in DMSO, are added to the wells in 1 μl volume at the following concentrations: 50, 40, 30, 20, and 10 μg/ml in triplicate. Additional concentrations are tested if required. 1 μl of DMSO is added to triplicate wells are the vehicle control. C75 is run at 10, and 5 μg/ml in triplicate as positive controls.
After 72 hours of incubation, cells are stained with 0.5 ml of Crystal Violet stain (0.5% in 25% methanol) in each well. After 10 minutes, wells are rinsed, air dried, and then solubilized with 0.5 ml 10% sodium dodecylsulfate with shaking for 2 hours.

[2] = Weight loss screen in Balb/C mice; format: in vivo; settings: for change in vivo at 60 mg/kg: ip, 60 mg/kg intraperitoneally; for Deaths in weight loss screen: 60 mg/kg
Method: Balb/C mice (Jackson Labs) are utilized for the initial weight loss screening. Animals are housed in temperature and 12 hour day/night cycle rooms and fed mouse chow and water ad lib. Three mice are utilized for each compound tested with vehicle controls in triplicate per experiment. For the experiments, mice are housed separately for each compound tested three mice to a cage. […] Mice are observed and weighed daily; average weights and standard errors are computed with Excel (Microsoft). The experiment continues until treated animals reach their pretreatment weights. […]

[3] = test system: MCF-7 human breast cancer cells; assay: XTT cytotoxicity assay; format: cell-based; settings: MCF7, MCF-7, 72 hours, some cells marked (M)
Method: The XTT assay is a non-radioactive alternative for the [^51 Cr] release cytotoxicity assay. XTT is a tetrazolium salt that is reduced to a formazan dye only by metabolically active, viable cells. The reduction of XTT is measured spectrophotometrically as OD490-OD650.
To measure the cytotoxicity of specific compounds against cancer cells, 9×10^3 MCF-7 human breast cancer cells, obtained from the American Type Culture Collection are plated per well in 96 well plates in DMEM medium with 10% fetal bovine serum, insulin, penicillin, and streptomycin. Following overnight culture at 37° C. and 5% CO2, the compounds to be tested, dissolved in DMSO, are added to the wells in 1 μl volume at the following concentrations: 80, 40, 20, 10, 5, 2.5, 1.25, and 0.625 μg/ml in triplicate. Additional concentrations are tested if required. 1 μl of DMSO is added to triplicate wells are the vehicle control. C75 is run at 40, 20, […], and 5 μg/ml in triplicate as positive controls. After 72 hours of incubation, cells are incubated for 4 hours with the XTT reagent as per manufacturer's instructions (Cell Proliferation Kit II (XTT) Roche). Plates are read at OD490 and OD650 on a Molecular Devices SpectraMax Plus Spectrophotometer. Three wells containing the XTT reagent without cells serve as the plate blank. XTT data are reported as OD490-OD650-Averages and standard error of the mean are computed using SOFTmax Pro software (Molecular Dynamics).
The IC50 for the compounds is defined as the concentration of drug leading to a 50% reduction in OD490-OD650 compared to controls. The OD490-OD650 are computed by the SOFTmax PRO software (Molecular Devices) for each compound concentration. IC50 is calculated by linear regression, plotting the FAS activity as percent of control versus drug concentrations. Linear regression, best-fit line, r^2, and 95% confidence intervals are determined using Prism Version 3.0 (Graph Pad Software).

[4] = Mus musculus, 48 h, day2, read-out: Weight Loss
[5] = Mus musculus, 48 h, 30 mg/kg, day2, read-out: Weight Loss
[6] = Mus musculus, 24 h, read-out: Weight Loss
[7] = Mus musculus, 24 h, day1, read-out: Weight Loss
[8] = Mus musculus, 48 h, read-out: Weight Loss

T1 sequence (P49327 whole entry): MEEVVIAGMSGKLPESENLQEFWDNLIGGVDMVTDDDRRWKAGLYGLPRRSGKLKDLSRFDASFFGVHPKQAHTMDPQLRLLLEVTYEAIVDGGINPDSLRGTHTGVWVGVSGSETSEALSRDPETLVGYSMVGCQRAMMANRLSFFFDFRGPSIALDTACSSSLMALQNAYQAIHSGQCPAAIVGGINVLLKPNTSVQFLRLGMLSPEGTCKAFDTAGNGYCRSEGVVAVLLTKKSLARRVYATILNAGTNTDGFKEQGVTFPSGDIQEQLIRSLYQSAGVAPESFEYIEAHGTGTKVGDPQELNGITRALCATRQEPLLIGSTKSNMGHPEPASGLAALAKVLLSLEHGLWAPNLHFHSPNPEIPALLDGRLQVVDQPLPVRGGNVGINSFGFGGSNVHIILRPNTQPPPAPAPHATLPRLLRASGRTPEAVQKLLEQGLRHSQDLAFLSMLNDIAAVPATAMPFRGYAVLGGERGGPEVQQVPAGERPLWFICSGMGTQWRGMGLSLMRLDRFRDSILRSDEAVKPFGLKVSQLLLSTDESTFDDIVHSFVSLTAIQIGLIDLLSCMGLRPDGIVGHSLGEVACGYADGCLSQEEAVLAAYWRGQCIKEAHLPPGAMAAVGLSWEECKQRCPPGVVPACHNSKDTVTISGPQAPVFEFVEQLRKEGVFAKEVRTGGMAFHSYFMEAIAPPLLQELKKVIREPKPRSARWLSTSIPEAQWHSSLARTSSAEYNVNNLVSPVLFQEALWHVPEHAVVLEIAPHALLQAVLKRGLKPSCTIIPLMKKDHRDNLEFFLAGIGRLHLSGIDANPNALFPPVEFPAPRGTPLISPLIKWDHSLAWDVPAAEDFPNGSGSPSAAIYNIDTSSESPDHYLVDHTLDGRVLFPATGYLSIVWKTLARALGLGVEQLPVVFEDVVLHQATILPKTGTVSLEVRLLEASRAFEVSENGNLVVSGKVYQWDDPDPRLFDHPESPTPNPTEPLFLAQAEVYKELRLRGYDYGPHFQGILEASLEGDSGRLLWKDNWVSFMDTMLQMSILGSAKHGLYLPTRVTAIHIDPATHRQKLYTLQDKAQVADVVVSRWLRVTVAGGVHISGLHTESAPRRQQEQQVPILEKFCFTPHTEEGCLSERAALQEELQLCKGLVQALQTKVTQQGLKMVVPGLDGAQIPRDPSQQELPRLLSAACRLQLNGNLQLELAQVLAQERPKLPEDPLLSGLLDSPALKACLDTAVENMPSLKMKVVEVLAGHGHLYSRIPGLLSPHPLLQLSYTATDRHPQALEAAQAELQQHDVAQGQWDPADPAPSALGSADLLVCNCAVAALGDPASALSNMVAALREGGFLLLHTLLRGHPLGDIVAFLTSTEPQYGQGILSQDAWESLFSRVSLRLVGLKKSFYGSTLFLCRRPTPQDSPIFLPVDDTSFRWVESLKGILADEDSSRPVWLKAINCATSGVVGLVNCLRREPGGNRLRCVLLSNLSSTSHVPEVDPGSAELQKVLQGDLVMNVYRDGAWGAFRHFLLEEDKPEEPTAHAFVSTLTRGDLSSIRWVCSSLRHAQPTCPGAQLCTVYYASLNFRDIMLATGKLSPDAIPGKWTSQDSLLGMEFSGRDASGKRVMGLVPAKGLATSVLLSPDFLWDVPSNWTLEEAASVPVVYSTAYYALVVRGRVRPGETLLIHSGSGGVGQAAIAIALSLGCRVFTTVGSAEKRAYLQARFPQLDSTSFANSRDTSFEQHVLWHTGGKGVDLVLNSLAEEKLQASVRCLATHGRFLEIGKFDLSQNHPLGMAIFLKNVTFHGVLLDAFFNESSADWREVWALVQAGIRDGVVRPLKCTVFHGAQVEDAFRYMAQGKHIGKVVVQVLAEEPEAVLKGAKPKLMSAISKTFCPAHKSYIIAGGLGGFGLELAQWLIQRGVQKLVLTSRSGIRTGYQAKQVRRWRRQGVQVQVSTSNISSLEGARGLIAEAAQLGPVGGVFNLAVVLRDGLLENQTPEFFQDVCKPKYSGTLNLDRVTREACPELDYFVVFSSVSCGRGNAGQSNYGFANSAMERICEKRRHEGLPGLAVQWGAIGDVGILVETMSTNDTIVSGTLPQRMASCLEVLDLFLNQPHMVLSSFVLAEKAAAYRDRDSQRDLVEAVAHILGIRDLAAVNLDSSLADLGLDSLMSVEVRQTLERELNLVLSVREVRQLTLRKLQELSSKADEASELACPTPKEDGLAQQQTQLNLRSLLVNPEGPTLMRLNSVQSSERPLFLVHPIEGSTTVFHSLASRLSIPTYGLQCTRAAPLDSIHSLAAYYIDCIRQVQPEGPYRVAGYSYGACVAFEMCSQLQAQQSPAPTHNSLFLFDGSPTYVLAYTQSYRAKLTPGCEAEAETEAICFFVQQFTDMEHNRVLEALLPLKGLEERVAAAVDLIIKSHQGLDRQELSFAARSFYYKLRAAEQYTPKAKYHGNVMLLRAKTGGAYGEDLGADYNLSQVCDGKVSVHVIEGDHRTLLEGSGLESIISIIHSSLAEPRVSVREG

SMILES	IC50 [1] [µg/mL]	change in vivo at 60 mg/kg [2, 4] [%]	IC50 [3] [µg/mL]	FAS(IC50) (purified human FAS)	other results
CCCCCCCCC1(C)SC(=O)C=C1OC(=O)OCC (centres unmarked)	31.4 ± 5.7 (≈ 99.9 µM)	6.9	15.1 ± 2.6 (≈ 48 µM)		IC50 (purified human FAS; unit inferred): 9.54 µM; change in vivo at 30 mg/kg ([2]; Mus musculus, 96 h, 30 mg/kg, day4, read-out: Weight Loss): 1.3%
C#CCOC1CC(=O)S[C@]1(C)CCCCCC (mixture of isomers)	12.1 ± 1.5		8.9 ± 2.3	Neg	Deaths in weight loss screen ([2]; day2, three mice): 3 of 3 dead; change in vivo at 30 mg/kg ([2]; Mus musculus, 72 h, 30 mg/kg, day3, read-out: Weight Loss): 5.9%
C=CCOC1=CC(=O)S[C@]1(C)CCCCCC (racemic)	8.1 (≈ 31.8 µM)		9 ± 1.1 (≈ 35.4 µM)	Neg	Deaths in weight loss screen ([2]; day2, three mice): 2 of 3 dead; change in vivo at 30 mg/kg [2, 5]: 8.8%
C=CCOC1=CC(=O)S[C@]1(C)CCCCCCCC (racemic)	11 (≈ 38.9 µM)		14.5 ± 1.5 (≈ 51.3 µM)	Neg	Deaths in weight loss screen ([2]; day3, three mice): 3 of 3 dead; change in vivo at 30 mg/kg [2, 5]: 4.7%
CCCCCCCC[C@@]1(C)SC(=O)C=C1OCC(=O)OCC (racemic)	17.9 ± 5.1 (≈ 54.5 µM)		35.3 ± 10.4 (≈ 107 µM)	Neg	change in vivo at 30 mg/kg [2, 6]: 4.5%; change in vivo at 60 mg/kg [2, 7]: 1.8%
C=CCNC(=O)COC1=CC(=O)S[C@]1(C)CCCCCCCCCC (racemic)	10.4 (≈ 28.3 µM)		12.1 ± 0.6 (≈ 32.9 µM)	Neg	change in vivo at 15 mg/kg [2, 6]: 0%; change in vivo at 30 mg/kg [2, 8]: 1.8%
CCCCCC[C@@]1(C)SC(=O)C=C1OCC(=O)NCC(=O)O (racemic)	> 50	3.5	> 80	Neg	
CCCCCCCC[C@@]1(C)SC(=O)C=C1OC(=O)OC (racemic)	41.4 ± 14.1 (≈ 138 µM)		21.6 ± 0.2 (≈ 71.9 µM)		IC50 (purified human FAS): 5.99 µM; change in vivo at 60 mg/kg [2, 7]: 7.65%
C=CCOC(=O)OC1=CC(=O)S[C@]1(C)CCCCCCCC (racemic)	35.8 (≈ 110 µM)	6.2	34.9 ± 10 (≈ 107 µM)		IC50 (purified human FAS): 16.8 µM; change in vivo at 30 mg/kg [2, 8]: 1%
CCCCCCCC[C@@]1(C)SC(=O)C(C(C)=O)=C1O (racemic)	8.4 (≈ 29.5 µM)	8.2	125 ± 0.7 (≈ 439 µM)	Neg	
